Structures are written as SMILES. Like-named read-outs stand apart in the source and are kept apart here.

This is an account of results in US8575156B2, “Cyclic inhibitors of 11β-hydroxysteroid dehydrogenase 1” (Vitae Pharmaceuticals, Inc., priority 2007, dated 2013).

The target in the experiment is 11β-HSD1 (Homo sapiens, UniProt P28845). As to the kind of experiment: biochemical. The following applies: for IC50: IC50 Range, Biological Test Example 1, microsomes from CHO cells overexpressing human 11β-HSD1; for inhibition at 0.1 µM: read-out: Average % inhibition at 100 nM, Biological Test Example 1; for inhibition at 0.1111 µM: read-out: Average % inhibition at 111.1 nM, Biological Test Example 1, 111.1 nM compound.
11β-HSD1, sequence (P28845 whole entry): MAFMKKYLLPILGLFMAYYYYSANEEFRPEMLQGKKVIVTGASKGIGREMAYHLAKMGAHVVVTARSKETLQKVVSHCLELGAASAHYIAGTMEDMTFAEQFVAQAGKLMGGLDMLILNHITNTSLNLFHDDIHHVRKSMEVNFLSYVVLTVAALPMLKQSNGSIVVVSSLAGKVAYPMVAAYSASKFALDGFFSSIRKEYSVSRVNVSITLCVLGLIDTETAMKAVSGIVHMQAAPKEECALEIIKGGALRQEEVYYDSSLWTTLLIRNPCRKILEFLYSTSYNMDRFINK

In turn, `C[C@@H](c1ccc(F)cc1)N1CC[C@](CCO)(c2ccccc2)OC1=O` [EXAMPLE 412, (S)-3-((S)-1-(4-fluorophenyl)ethyl)-6-(2-hydroxyethyl)-6-phenyl-1,3-oxazinan-2-one] returned an IC50 below 100 nM. The inhibition at 0.1 µM (100 nM) stood at 94.7%.
For `Cc1cc(-c2ccc([C@H](C)N3CC[C@](CCCO)(c4ccc(F)cc4)OC3=O)cc2)ccn1` [EXAMPLE 311, (R)-6-(4-fluorophenyl)-6-(3-hydroxypropyl)-3-((S)-1-(4-(2-methylpyridin-4-yl)phenyl)ethyl)-1,3-oxazinan-2-one] the same measures were below 100 nM and 96.7%.
For the compound `C=CCC1(c2cccs2)CCN([C@@H](C)c2ccc(Br)cc2)C(=O)O1` (single isomer, unassigned) [EXAMPLE 157 Isomer 1], the IC50 is below 100 nM. The inhibition at 0.1 µM (100 nM compound) came to 97.4%.
In the case of `C[C@@H](c1cccc(CO)c1)N1CC[C@](CCCO)(c2ccc(F)cc2)OC1=O` [EXAMPLE 363, (R)-6-(4-fluorophenyl)-3-((S)-1-(3-(hydroxymethyl)phenyl)ethyl)-6-(3-hydroxypropyl)-1,3-oxazinan-2-one], the IC50 was below 100 nM. Further, under “100 nM”, the inhibition at 0.1 µM is 74.5%.
For `Cc1ccc([C@H](C)N2CC[C@](CCCO)(c3ccc(F)cc3)OC2=O)cc1` [EXAMPLE 418, (R)-6-(4-fluorophenyl)-6-(3-hydroxypropyl)-3-((S)-1-p-tolylethyl)-1,3-oxazinan-2-one] the same measures were below 100 nM and 99.2%.
`C[C@@H](c1ccc(F)cc1)N1CC[C@](CCC(C)(C)O)(c2ccccc2)OC1=O` [EXAMPLE 416, (R)-3-((S)-1-(4-fluorophenyl)ethyl)-6-(3-hydroxy-3-methylbutyl)-6-phenyl-1,3-oxazinan-2-one] showed an IC50 below 100 nM. Besides, the inhibition at 0.1 µM (100 nM) worked out at 55.1%.
On to `CC1(c2ccccc2)CCN(c2cccc(-c3ccccc3CO)c2)C(=O)O1` (centres unmarked) [EXAMPLE 35, 3-(2′-(hydroxymethyl)biphenyl-3-yl)-6-methyl-6-phenyl-1,3-oxazinan-2-one], for which the IC50 fell in the range of 100 to 1000 nM and the inhibition at 0.1111 µM was determined as 26.7%.
In turn, `C[C@@H](c1ccc(Br)cc1)N1CC[C@](CCC(=O)O)(c2ccc(F)cc2)OC1=O` [EXAMPLE 526, 3-((R)-3-((S)-1-(4-bromophenyl)ethyl)-6-(4-fluorophenyl)-2-oxo-1,3-oxazinan-6-yl)propanoic acid] registered a half-maximal inhibitory concentration (IC50) below 100 nM. In addition, the inhibition at 0.1 µM (100 nM) was 54.6%.
As for `C[C@@H](c1ccc(OC(F)F)cc1)N1CC[C@](CCCNS(C)(=O)=O)(c2ccccc2)OC1=O` [EXAMPLE 331, N-(3-((R)-3-((S)-1-(4-(difluoromethoxy)phenyl)ethyl)-2-oxo-6-phenyl-1,3-oxazinan-6-yl)propyl)methanesulfonamide], the IC50 was below 100 nM. Further, the inhibition at 0.1 µM (100 nM) was determined as 97.1%.
For the compound `NCCC1(c2ccccc2)CCN(c2cccc(-c3ccc(F)cc3F)c2)C(=O)O1` (centres unmarked) [EXAMPLE 75, 6-(2-aminoethyl)-3-(2′,4′-difluorobiphenyl-3-yl)-6-phenyl-1,3-oxazinan-2-one], the IC50 was below 100 nM and the inhibition at 0.1111 µM was 57.8%.
For `CC1(c2ccccc2)CCN(c2cccc(-c3cc(F)cc(F)c3)c2)C(=O)O1` (centres unmarked) [EXAMPLE 27, 3-(3′,5′-difluorobiphenyl-3-yl)-6-methyl-6-phenyl-1,3-oxazinan-2-one] the same measures were below 100 nM and 67%.
In the case of `C[C@@H](c1ccc(F)cc1)N1CC[C@](CC(C)(C)O)(c2ccccc2)OC1=O` [EXAMPLE 413, (S)-3-((S)-1-(4-fluorophenyl)ethyl)-6-(2-hydroxy-2-methylpropyl)-6-phenyl-1,3-oxazinan-2-one], the half-inhibitory concentration (IC50) was below 100 nM. For the same compound, the inhibition at 0.1 µM (100 nM) worked out at 95.3%.
`C[C@@H](c1ccc(-c2cccs2)cc1)N1CC[C@](CCCO)(c2ccccc2)OC1=O` [EXAMPLE 216, (R)-6-(3-hydroxypropyl)-6-phenyl-3-((S)-1-(4-(thiophen-2-yl)phenyl)ethyl)-1,3-oxazinan-2-one] yielded an IC50 below 100 nM. The inhibition at 0.1 µM (100 nM compound) turned out to be 92.6%.
